Laboratory results from PMC12274739, “Differential substrate degradation by super-degron: EGFP in wild-type mouse cells, PD-1 requires CRBN humanization” (iScience, 2025).
Values joined by “and” are separate entries in the source; they are usually repeats but may differ in a detail not shown here. Identical values can stand only once. Like-named read-outs stand apart in the source and are kept apart here.

What was measured:
[1] = design: method as in PMID 32969202; conditions: humans, cited from earlier work
[2] = test system: MC-38 adenocarcinoma cells; experiment: Growth of inoculated MC-38 adenocarcinoma cells in mice; type: in vivo, mouse
Experimental: Data are represented as mean ± standard error (SEM). The same experiment was repeated twice to confirm reproducibility. p-values were determined by two-way ANOVA multiple comparisons. ∗∗∗∗p < 0.0001 and ∗p = 0.0267. […] Data are represented as mean ± SEM. The same experiment was repeated twice to confirm reproducibility. p-values were determined by two-way ANOVA multiple comparisons. ∗∗∗∗p < 0.0001, ∗∗∗p = 0.0005, ∗∗p = 0.0067. […] Ratio of PD-1 positive cells and mean fluorescence intensity (MFI) of PD-1 (D), TIM-3 (E), and LAG-3 (F) on CD8^+ and CD4^+ T cells isolated from tumor microenvironments 9 days after the initiation of treatment are shown. Fluorescence intensity of each molecule was measured by flow cytometry, and the geometric MIFs of marker-positive cells were calculated. The data in two experiments were compiled. p-values were determined by the Brown-Forsythe and Welch ANOVA test. Different letters indicate statistically significant differences between groups (p < 0.05). […]
Next, the effects of SD-induced PD-1 reduction were compared with those of anti-PD-1 antibody treatment in vivo. […] CD3^+ T cells infiltrating the MC-38 microenvironment were analyzed on day 9 of treatment before the MC-38 tumor masses had shrunk with treatment and no longer provided sufficient T cells for FACS analyses. […]

SD-EGFP = SD-EGFP (Mus musculus, UniProt P42212+Q8C7D2, F64L/H231L/INS1V/S65T, form not given); type: cell-based
SD-tagged EGFP = experiment: Degradation of SD-tagged EGFP in Crbn−/− (CRBN-KO) mESCs; type: cell-based, mouse; conditions: IBR up to 1 μM, 24 h
EGFP-SD (C-terminal SD) [3] = target: EGFP-SD (C-terminal SD) (Aequorea victoria, UniProt P42212, F64L/H231L/S65T); type: cell-based, mouse; conditions: transient, 24 h; for DC50: read-out: DC50, EGFP-SD
EGFP-SD (C-terminal SD) [4] = type: cell-based, mouse; conditions: Crbn+/I391V mESCs (h/mCRBN), transient, 24 h
EGFP-SD = experiment: Degradation of stably expressed EGFP-SD in human cell lines (hESCs, HEK293, Jurkat); type: cell-based; conditions: for bottom vs top, EGFP-SD: IBR up to 1 μM
[5] = test system: CD8+ and CD4+ T cells infiltrating the MC-38 microenvironment; experiment: Markers on T cells from MC-38 tumor microenvironment, flow cytometry day 9; type: in vivo, mouse
Experimental: Data are represented as mean ± standard error (SEM). The same experiment was repeated twice to confirm reproducibility. p-values were determined by two-way ANOVA multiple comparisons. ∗∗∗∗p < 0.0001 and ∗p = 0.0267. […] Data are represented as mean ± SEM. The same experiment was repeated twice to confirm reproducibility. p-values were determined by two-way ANOVA multiple comparisons. ∗∗∗∗p < 0.0001, ∗∗∗p = 0.0005, ∗∗p = 0.0067. […] Ratio of PD-1 positive cells and mean fluorescence intensity (MFI) of PD-1 (D), TIM-3 (E), and LAG-3 (F) on CD8^+ and CD4^+ T cells isolated from tumor microenvironments 9 days after the initiation of treatment are shown. Fluorescence intensity of each molecule was measured by flow cytometry, and the geometric MIFs of marker-positive cells were calculated. The data in two experiments were compiled. p-values were determined by the Brown-Forsythe and Welch ANOVA test. Different letters indicate statistically significant differences between groups (p < 0.05). Boxplots: hinges, 25th and 75th percentiles; middle line, median; whiskers, minimum to maximum value.
Next, the effects of SD-induced PD-1 reduction were compared with those of anti-PD-1 antibody treatment in vivo. […] CD3^+ T cells infiltrating the MC-38 microenvironment were analyzed on day 9 of treatment before the MC-38 tumor masses had shrunk with treatment and no longer provided sufficient T cells for FACS analyses.
Subsequently, we analyzed the proportion of exhaustion and activation marker-positive cells in each experimental group, as well as the expression levels of each marker in the marker-positive cells.
P-values were determined by one-way ANOVA with Tukey’s multiple comparisons. IBR: IBR-treated.
Samples are the same as Figure 7D. CrbnI391V/I391V mice were used for the experiments. Only PD-1 genotypes were shown in D. Pdcd1+/+/CrbnI391V/I391V control Ab: n = 11, Pdcd1+/+/CrbnI391V/I391V […]
E Expression analyses of PD-1, TIM-3, LAG-3, TIGIT and CX3CR1 on T cells by flow cytometry.
Cells in microenvironments were sorted by indicated gates. Dotted lines indicate isotype control. […]
PD-1 treatment. […] Different letters indicate statistically significant differences between groups (p < 0.05). Box plots: hinges, 25th and 75th percentiles; middle line, median; whiskers, minimum to maximum value.

SD-EGFP (N-terminal SD) [6] = target: SD-EGFP (N-terminal SD) (Aequorea victoria, UniProt P42212, F64L/H231L/S65T); type: cell-based, mouse; conditions: transient, 24 h; for DC50: read-out: DC50, SD-EGFP
SD-EGFP (N-terminal SD) [7] = type: cell-based, mouse; conditions: Crbn+/I391V mESCs (h/mCRBN), transient, 24 h
[8] = test system: mouse PD-1-mCherry-IKZF full-length tag; conditions: Jurkat, 24 h
[9] = test system: mouse PD-1-mCherry-Sall4 tag; type: cell-based, human; conditions: Jurkat, 24 h

**Q.** Which results are given for `O=C1CC[C@H](N2Cc3c(OCc4ccc(CN5CCOCC5)cc4)cccc3C2=O)C(=O)N1` [IBR, iberdomide]?
**A.** IBR present after 24 h, of the maximum concentration ([1]; multiple doses): about 20%; time of serum concentration peak ([1]; oral, single and multiple once-daily doses): 3 h; serum concentration with multiple doses compared to a single dose [1]: doubles; MC-38 cell proliferation ([2]; Pdcd1+/+/CrbnI391V/I391V mice): comparable; growth of MC-38 cells ([2]; Pdcd1SD/SD/CrbnI391V/I391V mice, oral administration of IBR): suppressed proliferation for the entire period; bottom vs top, SD-EGFP (SD-EGFP): 0.186 and 0.153 and 0.146 and 0.15 and 0.19; level to which SD-EGFP was suppressed (SD-EGFP): 20%; degradation of SD-tagged EGFP (SD-tagged EGFP): did not occur; Bottom, EGFP-SD (EGFP/mCherry MFI) (EGFP-SD (C-terminal SD) [3]; B6J-S1 mESCs): 0.03557; bottom vs top, EGFP-SD (EGFP-SD (C-terminal SD) [3]; B6J-S1 mESCs): 0.10; Bottom, EGFP-SD (EGFP/mCherry MFI) (EGFP-SD (C-terminal SD) [3]; Crbn+/+ mESCs (mCRBN)): 0.04584; bottom vs top, EGFP-SD (EGFP-SD (C-terminal SD) [3]; Crbn+/+ mESCs (mCRBN)): 0.15; Bottom, EGFP-SD (EGFP/mCherry MFI) (EGFP-SD (C-terminal SD) [3]; CrbnI391V/I391V mESCs (hCRBN)): 0.007275; bottom vs top, EGFP-SD (EGFP-SD (C-terminal SD) [3]; CrbnI391V/I391V mESCs (hCRBN)): 0.03; DC50 (EGFP-SD (C-terminal SD) [3]; B6J-S1 mESCs): 0.815 nM; DC50 (EGFP-SD (C-terminal SD) [3]; Crbn+/+ mESCs (mCRBN)): 2.17 nM; DC50 (EGFP-SD (C-terminal SD) [3]; CrbnI391V/I391V mESCs (hCRBN)): 0.0654 nM; Bottom, EGFP-SD (EGFP/mCherry MFI) (EGFP-SD (C-terminal SD) [4]): 0.01502; DC50 (EGFP-SD (C-terminal SD) [4]): 0.0707 nM; bottom vs top, EGFP-SD (EGFP-SD (C-terminal SD) [4]): 0.04; Bottom, EGFP-SD (EGFP-SD; HEK293, stable): 0.01028; DC50 (EGFP-SD; HEK293, stable): 0.00545 nM; bottom vs top, EGFP-SD (EGFP-SD; HEK293, stable): 0.009; Bottom, EGFP-SD (EGFP-SD; Jurkat, stable): 0.02414; DC50 (EGFP-SD; Jurkat, stable): 0.0118 nM; bottom vs top, EGFP-SD (EGFP-SD; Jurkat, stable): 0.024; Bottom, EGFP-SD (EGFP-SD; human ESCs, stable): 0.007522; DC50 (EGFP-SD; human ESCs, stable): 0.00278 nM; bottom vs top, EGFP-SD (EGFP-SD; human ESCs, stable): 0.005; TIM-3 in CD8+ T cells vs untreated ([5]; IBR: Pdcd1SD/SD/CrbnI391V/I391V, cell ratio and expression level, antibody: Pdcd1+/+/CrbnI391V/I391V, expression level): decreased; CX3CR1 in CD8+ T cells vs untreated ([5]; IBR: Pdcd1SD/SD/CrbnI391V/I391V, antibody: Pdcd1+/+/CrbnI391V/I391V, CX3CR1+ cell ratio): comparable between IBR-treated and untreated groups; LAG-3 and TIGIT in CD8+ T cells vs untreated ([5]; IBR: Pdcd1SD/SD/CrbnI391V/I391V, antibody: Pdcd1+/+/CrbnI391V/I391V, expression level): remained comparable; LAG-3 expression levels in CD4+ T cells ([5]; Pdcd1SD/SD/CrbnI391V/I391V): higher than those in the untreated group; PD-1 expression level in PD-1+ CD8+ T cells vs untreated ([5]; Pdcd1SD/SD/CrbnI391V/I391V, day 9): significant reduction; frequency / number of T cells infiltrating the MC-38 microenvironment ([5]; day 9 of treatment): did not differ; Bottom, SD-EGFP (EGFP/mCherry MFI) (SD-EGFP (N-terminal SD) [6]; B6J-S1 mESCs): 0.09529; bottom vs top, SD-EGFP (SD-EGFP (N-terminal SD) [6]; B6J-S1 mESCs): 0.24; Bottom, SD-EGFP (EGFP/mCherry MFI) (SD-EGFP (N-terminal SD) [6]; Crbn+/+ mESCs (mCRBN)): 0.113; bottom vs top, SD-EGFP (SD-EGFP (N-terminal SD) [6]; Crbn+/+ mESCs (mCRBN)): 0.25; Bottom, SD-EGFP (EGFP/mCherry MFI) (SD-EGFP (N-terminal SD) [6]; CrbnI391V/I391V mESCs (hCRBN)): 0.04953; bottom vs top, SD-EGFP (SD-EGFP (N-terminal SD) [6]; CrbnI391V/I391V mESCs (hCRBN)): 0.13; DC50 (SD-EGFP (N-terminal SD) [6]; B6J-S1 mESCs): 1.82 nM; DC50 (SD-EGFP (N-terminal SD) [6]; Crbn+/+ mESCs (mCRBN)): 6.06 nM; DC50 (SD-EGFP (N-terminal SD) [6]; CrbnI391V/I391V mESCs (hCRBN)): 0.0637 nM; Bottom, SD-EGFP (EGFP/mCherry MFI) (SD-EGFP (N-terminal SD) [7]): 0.07126; DC50 (SD-EGFP (N-terminal SD) [7]): 0.0784 nM; bottom vs top, SD-EGFP (SD-EGFP (N-terminal SD) [7]): 0.18

**Q.** For `Nc1cccc2c1C(=O)N(C1CCC(=O)NC1=O)C2=O` (stereo not drawn) [POM, pomalidomide], which “Bottom, mCherry (mC)” value ([8]; mCherry, no reagent = 1) is on record?
**A.** Its value is 0.6165.

**Q.** And the “Bottom, PD-1 (FITC)” value ([8]; surface PD-1, no reagent = 1)?
**A.** Its value is 0.32 and 0.3218.

**Q.** What about the “Bottom, PD-1 (FITC)” value ([9]; SALL4 tag, surface PD-1, no reagent = 1) of the same molecule?
**A.** The value was 0.9333.

**Q.** What about the “effect on protein levels” value ([9]; Sall4 tag) of the same molecule?
**A.** Its value is “did not reduce protein levels”.
